Data on two molecules can be found in patent US8367700B2, “Substituted 4-(1.2,3,4-tetrahydroisoquinolin-2-yl)-4-oxobutyric acid amide as KCNQ2/3 modulators” (Gruenenthal GmbH, priority 2008, dated 2013).

Assay [1] concerns the target T1, hKCNQ2/3 (Homo sapiens, UniProt O43525+O43526). The assay can be described thus: Fluorescence assay using a voltage-sensitive dye (fluorimetry). The conditions noted are these: CHO-K1 cells expressing KCNQ2/3. Set-up: expressed in transfected cells; host or cells: CHO-K1. Format: cell-based. As to the method:
Pharmacological Experiments Fluorescence Assay Using a Voltage-Sensitive Dye
Human CHO-K1 cells expressing KCNQ2/3 channels are cultivated adherently at 37° C., 5% CO2 and 95% humidity in cell culture bottles (e.g. 80 cm^2 TC flasks, Nunc) with DMEM-high glucose (Sigma Aldrich, D7777) including 10% FCS (PAN Biotech, e.g. 3302-P270521) or alternatively MEM Alpha Medium (1×, liquid, Invitrogen, #22571), 10% foetal calf serum (FCS) (Invitrogen, #10270-106, heat-inactivated) and the necessary selection antibiotics.
Before being sown out for the measurements, the cells are washed with a 1×DPBS buffer without Ca^2+/Mg^2+ (e.g. Invitrogen, #14190-094) and detached from the bottom of the culture vessel by means of Accutase (PAA Laboratories, #L11-007) (incubation with Accutase for 15 min at 37° C.). The cell count then present is determined using a CASY™ cell counter (TCC model, Scharfe System) in order subsequently to apply 20,000 to 30,000 cells/well/100 μl of the described nutrient medium, depending on density optimisation for the individual cell line, to 96-well measuring plates of the Corning™ CeIIBIND™ type (flat clear-bottom black polystyrene microplates, #3340).
Incubation is then carried out for one hour at room temperature, without gassing or adjusting the humidity, followed by incubation for 24 hours at 37° C., 5% CO2 and 95% humidity.
The voltage-sensitive fluorescent dye from the Membrane Potential Assay Kit (Red™ bulk format part R8123 for FLIPR, MDS Analytical Technologies™) is prepared by dissolving the contents of a vessel of Membrane Potential Assay Kit Red Component A in 200 ml of extracellular buffer (ES buffer, 120 mM NaCl, 1 mM KCl, 10 mM HEPES, 2 mM CaCl2, 2 mM MgCl2, 10 mM glucose; pH 7.4). After removal of the nutrient medium, the cells are washed with 200 μl of ES buffer, then covered with a layer of 100 μl of the dye solution prepared above and incubated for 45 min at room temperature with exclusion of light.
The fluorescence measurements are carried out with a BMG Labtech FLUOstar™ BMG Labtech NOVOstar™ or BMG Labtech POLARstar™ instrument (525 nm excitation, 560 nm emission, bottom-read mode). After incubation of the dye, 50 μl of the substances to be tested in the desired concentrations, or 50 μl of ES buffer for control purposes, are introduced into separate cavities of the measuring plate and incubated for 30 min at room temperature whilst being shielded from light. The fluorescence intensity of the dye is then measured for 5 min and the fluorescence value F1 of each well is thus determined at a given, constant time. 15 μl of a […] KCl solution ([…]) are then added to each well. The change in fluorescence is subsequently measured until all relevant measured values have been obtained (mainly 5-30 min). At a given time after KCl application, a fluorescence value F2 is determined, in this case at the time of the fluorescence peak.
For calculation, the fluorescence intensity F2 is compared with the fluorescence intensity F1, and the agonistic activity of the target compound on the potassium channel is determined therefrom. F2 and F1 are calculated as follows: […]
In order to determine whether a substance has an agonistic activity,
[formula] for example, can be compared with
[formula] of control cells.
[formula] is determined by adding to the reaction batch only the buffer solution instead of the substance to be tested, determining the value F1K of the fluorescence intensity, adding the potassium ions as described above and measuring a value F2K of the fluorescence intensity. Then F2K and F1K are calculated as follows: […]
A substance has an agonistic activity on the potassium channel if
[formula] is greater than
Independently of the comparison of
[formula] it is also possible to conclude that a target compound has an agonistic activity if an increase in
[formula] is to be observed as the dosage of the target compound increases. […]

For assay [2], the target named is T1, hKCNQ2/3. Kind of assay: Voltage-clamp (patch-clamp) measurements on stably transfected hKCNQ2/3 CHO-K1 cell line. Format: cell-based. Set-up: expressed in transfected cells; host or cells: CHO-K1 (stably transfected). The conditions noted are these: 10 μM test substance at −40 mV, current increase normalised against retigabine (10 μM), read-out: Patch-clamp % Efficacy @ 10 μM (Retigabine = 100%). As to the method: Voltage-Clamp Measurements
In order to confirm a KCNQ2/3 agonistic action of the substances electrophysiologically, patch-clamp measurements (Hamill O P, Marty A, Neher E, Sakmann B, Sigworth F J: Improved patch-clamp techniques for high-resolution current recording from cells and cell-free membrane patches, Pfluger's Arch. 1981 August; 391(2):85-100) were performed in voltage-clamp mode on a stably transfected hKCNQ2/3 CHO-K1 cell line. After formation of the gigaseal the cells were first clamped at a holding potential of −60 mV. Depolarising voltage jumps up to a potential of +20 mV were then applied (increment: 20 mV, duration: 1 second) in order to confirm the functional expression of KCNQ2/3-typical currents. The substances were tested at a potential of −40 mV. First of all the current increase induced by retigabine (10 μM) at −40 mV was recorded on each cell as a positive control. After completely washing out the retigabine effect (duration: 80 s) the test substance (10 μM) was applied. The current increase induced by the test substance was normalised against the retigabine effect and stated as the relative efficacy (see below).

The test system of assay [3] is rat. Kind of assay: Formalin test in the rat. Format: in vivo, Sprague Dawley rats. The conditions noted are these: phase II (21-27 min after formalin administration). As to the method:
The formalin test (Dubuisson, D. and Dennis, S. G., 1977, Pain, 4, 161-174) is a model for acute and chronic pain. In the tests described here, the chronic pain component (phase II of the formalin test; time interval 21-27 min after formalin administration) was analysed.
A single formalin injection into the dorsal side of one rear paw was used to induce a biphase nociceptive response in experimental animals allowed to move freely, and the response was recorded by observation of three clearly distinguishable behaviour patterns.
Formalin is administered subcutaneously in a volume of 50 μl and a concentration of 5% into the dorsal side of the right rear paw of each animal. The vehicle and the substances to be tested are administered intravenously 5 minutes before or orally 30 minutes before the formalin injection.
The specific behavioural changes, such as lifting and shaking the paw, shifting of weight by the animal and biting and licking responses, are observed and recorded continuously for 60 minutes after formalin administration. The behavioural changes are weighted differently (score 0-3) and a pain rate (PR) calculated using the formula below: PR=[(T0×0)+(T1×1)+(T2×2)+(T3×3)/180.
Sprague Dawley rats (Janvier, Belgium) are used as the phylum. The weight of the animals is between 180 and 200 g. The group size was n=10.

T1 sequence (O43526 whole entry): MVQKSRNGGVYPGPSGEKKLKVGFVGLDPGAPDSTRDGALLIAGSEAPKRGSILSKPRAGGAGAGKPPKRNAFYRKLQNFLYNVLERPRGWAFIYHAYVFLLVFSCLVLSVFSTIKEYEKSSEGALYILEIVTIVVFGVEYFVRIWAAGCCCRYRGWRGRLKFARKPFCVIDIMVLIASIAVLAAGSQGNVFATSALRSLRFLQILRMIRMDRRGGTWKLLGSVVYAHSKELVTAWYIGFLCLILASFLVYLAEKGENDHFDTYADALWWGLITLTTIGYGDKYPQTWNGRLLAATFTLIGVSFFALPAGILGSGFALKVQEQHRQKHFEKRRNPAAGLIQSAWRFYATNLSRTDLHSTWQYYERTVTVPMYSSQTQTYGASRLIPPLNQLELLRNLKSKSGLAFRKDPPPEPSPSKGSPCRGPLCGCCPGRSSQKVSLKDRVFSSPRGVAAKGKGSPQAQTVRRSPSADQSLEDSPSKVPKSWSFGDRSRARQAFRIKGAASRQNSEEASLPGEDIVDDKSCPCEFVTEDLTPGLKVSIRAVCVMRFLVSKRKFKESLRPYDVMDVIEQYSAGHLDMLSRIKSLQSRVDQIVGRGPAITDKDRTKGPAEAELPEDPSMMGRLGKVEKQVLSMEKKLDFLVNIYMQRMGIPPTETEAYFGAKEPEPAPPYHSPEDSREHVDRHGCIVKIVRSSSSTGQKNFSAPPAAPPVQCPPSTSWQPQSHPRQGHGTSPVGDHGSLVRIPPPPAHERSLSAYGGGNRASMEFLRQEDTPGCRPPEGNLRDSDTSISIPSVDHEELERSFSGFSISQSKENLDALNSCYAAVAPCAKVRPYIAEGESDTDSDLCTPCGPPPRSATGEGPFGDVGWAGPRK
T1 sequence (O43525 whole entry): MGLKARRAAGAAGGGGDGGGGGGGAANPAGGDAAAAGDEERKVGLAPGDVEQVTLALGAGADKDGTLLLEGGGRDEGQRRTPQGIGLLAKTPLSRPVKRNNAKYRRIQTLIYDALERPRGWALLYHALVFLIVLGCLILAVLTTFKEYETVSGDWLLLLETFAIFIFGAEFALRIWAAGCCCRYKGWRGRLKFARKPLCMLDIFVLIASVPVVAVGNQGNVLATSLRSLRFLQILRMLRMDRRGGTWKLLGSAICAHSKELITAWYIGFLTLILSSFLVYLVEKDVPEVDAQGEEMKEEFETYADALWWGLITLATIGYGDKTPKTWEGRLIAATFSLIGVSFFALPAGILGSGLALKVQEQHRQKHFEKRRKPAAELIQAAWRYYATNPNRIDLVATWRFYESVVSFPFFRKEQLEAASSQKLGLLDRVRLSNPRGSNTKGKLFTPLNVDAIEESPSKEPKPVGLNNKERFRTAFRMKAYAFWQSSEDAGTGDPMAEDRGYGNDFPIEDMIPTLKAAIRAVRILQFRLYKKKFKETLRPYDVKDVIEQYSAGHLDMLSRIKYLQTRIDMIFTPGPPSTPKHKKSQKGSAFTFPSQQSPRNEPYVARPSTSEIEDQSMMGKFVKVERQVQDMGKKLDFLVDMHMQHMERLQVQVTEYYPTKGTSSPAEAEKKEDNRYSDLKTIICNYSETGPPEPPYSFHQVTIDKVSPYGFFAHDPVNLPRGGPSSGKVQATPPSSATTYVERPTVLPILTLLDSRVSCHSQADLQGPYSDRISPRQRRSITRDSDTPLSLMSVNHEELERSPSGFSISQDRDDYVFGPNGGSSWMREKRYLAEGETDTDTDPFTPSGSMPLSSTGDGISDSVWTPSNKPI

On to `O=C(CCC(=O)N1CCc2ccccc2C1c1ccccc1)NCc1cccc(C(F)(F)F)c1` (centres unmarked) [Example compound 1, 4-Oxo-4-(1-phenyl-3,4-dihydroisoquinolin-2(1H)-yl)-N-(3-(trifluoromethyl)benzyl)butyric acid amide], for which the Emax at 10 µM was determined as 110% in assay [1] (10 μM, relative to retigabine = 100%, read-out: Fluorimetry % Efficacy @ 10 μM (Retigabine = 100%)) and 78% in assay [2]. This molecule also registered an EC50 in assay [1] of 1900 nM. Besides, in assay [3], the “Formalin test rat i.v. @ 4.64 mg/kg % Reduction of nociceptive behaviour” value is reported as 40%.
Consider `O=C(CCC(=O)N1CCn2cccc2C1c1ccccc1)NCc1cccc(C(F)(F)F)c1` (centres unmarked) [Example no. 2 in WO2008/046582, reference compound], for which the “Formalin test rat i.v. @ 4.64 mg/kg % Reduction of nociceptive behaviour” value in assay [3] is “No effect”.
